Measurements reported in patent US20160022684A1, “BET INHIBITOR AND BRUTON'S TYROSINE KINASE INHIBITOR COMBINATIONS” (Pharmacyclics LLC, priority 2014, published 2016).

How the values were obtained:
TMD8 = assay: Combined drug treatment cell viability (CellTiter-Glo), ibrutinib with BET inhibitors, TMD8; format: cell-based; settings: JQ1 20 nM, OTX015 100 nM or medium alone (row), 3 days
Method: (§1) The DLBCL cell lines used during the experiments included TMD8, OCI-LY3, OCI-LY10, U-2932 and SU-DHL-2. DLBCL cells at either 1×10^4 cells or 2×10^4 cells were plated onto each well of a 96-W plate (Table 1). […] The 96-W plate was then incubated for 3 days. Cell viability was examined using a CellTiter-Glo assay. A 40 μL of CellTiter-Glo reagent was added directly into each well of the 96-W plate. The plate was then shaken on a Shaker ([…]) at speed 5 for 10-20 min at room temperature. Next, about 100 μL of the mixed medium was transferred to a white, non-transparent, flat bottom 96-W plate for assaying. […] Measurements were taken at room temperature. CellTiter-Glow reagents were thawed prior to use. Cells pre-plated onto a second 96-W plate and incubated at room temperature for 30 minutes were used for calibration purposes. […] CI is a quantitative description of the interaction property of the combination of two drugs.

[1] = tested on: activated B-cell like (ABC) subtype of DLBCL; settings: patients with ABC subtype of DLBCL; cited from earlier work
OCI-LY3 = assay: Combined drug treatment cell viability (CellTiter-Glo), ibrutinib with BET inhibitors, OCI-LY3; format: cell-based; settings: OCI-LY-3, JQ1 1 uM, OTX015 1 uM or medium alone (row), 3 days
Method: as §1

OCI-LY10 = assay: Combined drug treatment cell viability (CellTiter-Glo), ibrutinib with BET inhibitors, OCI-LY10; format: cell-based; settings: OCI-LY-10, JQ1 1 uM, OTX015 1 uM or medium alone (row), 3 days
Method: as §1

U-2932 = assay: Combined drug treatment cell viability (CellTiter-Glo), ibrutinib with BET inhibitors, U-2932; format: cell-based; settings: U2932, JQ1 20 nM, OTX015 50 nM (Table 2) or medium alone (row), 3 days
Method: as §1

SU-DHL-2 = assay: Combined drug treatment cell viability (CellTiter-Glo), ibrutinib with BET inhibitors, SU-DHL-2; format: cell-based; settings: JQ1 100 nM, OTX015 1 uM (Table 2) or medium alone (row), 3 days
Method: as §1

[2] = ibrutinib 0.0256 nM with I-BET151 200 nM
[3] = ibrutinib 0.64 nM with I-BET151 200 nM
[4] = ibrutinib 3.2 nM with I-BET151 200 nM
[5] = ibrutinib 16 nM with I-BET151 200 nM
[6] = ibrutinib 80 nM with I-BET151 200 nM
[7] = ibrutinib 400 nM with I-BET151 200 nM
[8] = ibrutinib 2000 nM with I-BET151 200 nM
[9] = ibrutinib 10000 nM with I-BET151 200 nM
[10] = ibrutinib […] with I-BET151 200 nM
[11] = ibrutinib 0.0256 nM with I-BET151 5 uM
[12] = ibrutinib 0.64 nM with I-BET151 5 uM
[13] = ibrutinib 3.2 nM with I-BET151 5 uM
[14] = ibrutinib 16 nM with I-BET151 5 uM
[15] = ibrutinib 80 nM with I-BET151 5 uM
[16] = ibrutinib 400 nM with I-BET151 5 uM
[17] = ibrutinib 2000 nM with I-BET151 5 uM
[18] = ibrutinib 10000 nM with I-BET151 5 uM
[19] = ibrutinib […] with I-BET151 5 uM

Structure (SMILES): C=CC(=O)N1CCC[C@@H](n2nc(-c3ccc(Oc4ccccc4)cc3)c3c(N)ncnc32)C1 [ibrutinib, 1-((R)-3-(4-amino-3-(4-phenoxyphenyl)-1H-pyrazolo[3,4-d]pyrimidin-1-yl)piperidin-1-yl)prop-2-en-1-one]
- luminescent signals (TMD8; [2]): 32496.06
- luminescent signals (TMD8; [3]): 29180.29
- luminescent signals (TMD8; [4]): 31383.77
- luminescent signals (TMD8; [5]): 27190.31
- luminescent signals (TMD8; [6]): 28263.05
- luminescent signals (TMD8; [7]): 25674.76
- luminescent signals (TMD8; [8]): 23421.2
- luminescent signals (TMD8; [9]): 10819.72
- luminescent signals (TMD8; [10]): 32828.16
- overall response rate [1]: 41%
- overall survival [1]: 9.7 month
- luminescent signals (OCI-LY3; [11]): 63957.7
- luminescent signals (OCI-LY3; [12]): 63322.7
- luminescent signals (OCI-LY3; [13]): 66789.02
- luminescent signals (OCI-LY3; [14]): 64655.7
- luminescent signals (OCI-LY3; [15]): 68972.2
- luminescent signals (OCI-LY3; [16]): 64472.02
- luminescent signals (OCI-LY3; [17]): 55749.79
- luminescent signals (OCI-LY3; [18]): 63477.51
- luminescent signals (OCI-LY3; [19]): 59441.78
- luminescent signals (OCI-LY10; [11]): 61548.88
- luminescent signals (OCI-LY10; [12]): 63983.91
- luminescent signals (OCI-LY10; [13]): 51190.81
- luminescent signals (OCI-LY10; [14]): 27324.38
- luminescent signals (OCI-LY10; [15]): 23511.43
- luminescent signals (OCI-LY10; [16]): 23784.91
- luminescent signals (OCI-LY10; [17]): 24452.84
- luminescent signals (OCI-LY10; [18]): 24826.24
- luminescent signals (OCI-LY10; [19]): 68196.56
- luminescent signals (U-2932; [2]): 63123.8
- luminescent signals (U-2932; [3]): 53722.16
- luminescent signals (U-2932; [4]): 53031.79
- luminescent signals (U-2932; [5]): 51023.93
- luminescent signals (U-2932; [6]): 49777.58
- luminescent signals (U-2932; [7]): 46009.54
- luminescent signals (U-2932; [8]): 46858.01
- luminescent signals (U-2932; [9]): 37935.94
- luminescent signals (U-2932; [10]): 57150.28
- luminescent signals (SU-DHL-2; ibrutinib 0.0256 nM with I-BET151 2 uM): 141202
- luminescent signals (SU-DHL-2; ibrutinib 0.64 nM with I-BET151 2 uM): 159399
- luminescent signals (SU-DHL-2; ibrutinib 3.2 nM with I-BET151 2 uM): 161613.5
- luminescent signals (SU-DHL-2; ibrutinib 16 nM with I-BET151 2 uM): 155353.5
- luminescent signals (SU-DHL-2; ibrutinib 80 nM with I-BET151 2 uM): 164140.7
- luminescent signals (SU-DHL-2; ibrutinib 400 nM with I-BET151 2 uM): 159908.6
- luminescent signals (SU-DHL-2; ibrutinib 2000 nM with I-BET151 2 uM): 154426.1
- luminescent signals (SU-DHL-2; ibrutinib 10000 nM with I-BET151 2 uM): 111485.8
- luminescent signals (SU-DHL-2; ibrutinib […] with I-BET151 2 uM): 146159.1
